Holding throughout (type): in vivo
Experiment [1] relates to Lentil (CDC Maxim). In words: Lentil (CDC Maxim) seed germination assay. Conditions: for lentil seed germination, antagonism of ABA: 10 μM ABA plus 10 μM compound (FIG. 6C); for antagonist activity, lentil germination: 10 uM versus 10 uM ABA; for antagonist activity, lentil germination / agonist activity, lentil germination: data not shown; for agonist activity, lentil germination: 10 uM. How it is done:
40 seeds were counted for each 100×15 mm petri dishes. Each petri dish contained two filter papers and 10 mL of test solutions. Then, they were wrapped with aluminium foil to cut off light. Wrapped plates were kept on lab bench at room temperature. Germinated seeds were counted everyday until one treatment reaches 100% germination (two days). Only light exposure was during plate counting. […]
All seeds from this experiment have been rinsed first with tap water and then with dH2O, frozen in liquid nitrogen and stored at −80° C. freezer.

Experiment [2] relates to Hard Red Spring wheat. Briefly: Hard Red Spring wheat seedling growth (root and shoot length). Conditions: 10 μM ABA, 72 h. How it is done:
For each treatment 3 replicates of 10 seeds were plated into petri dishes lined with two filter papers and 10 mL of test solution. The covered dishes were stored at room temperature in the dark. At 72 hours, germinated seeds were scored for root length and shoot length. The following dosages were used when studying the effect of the exemplary ABA analogues of the application on wheat shoot and root growth: control 1% DMSO. 10 μM ABA, 10 μM 1019, 100 μM exemplary compound 1019, 10 μM exemplary compound 1019 plus 10 μM ABA […] and 100 μM exemplary compound 1019 plus 10 μM ABA […].

Experiment [3] has as its system Canola seed (Nutrien PV200). In words: Canola seed germination assay. Conditions: 10 μM ABA, 8 day study (FIG. 10). How it is done: For each treatment 6 replicates of 40 seeds were plated into petri dishes lined with two filter papers and 10 mL of test solution. The covered dishes were stored at room temperature in the dark. Germinated seeds were counted every 2 days for 8 days. The following dosages were used when studying the effect of exemplary compounds on canola germination: control 1% DMSO. 10 μM ABA, 100 μM 1019, and 100 μM 1019 plus 10 μM ABA.

[4] abbreviates: 100 μM compound alone, compared to control (FIG. 6A).
Where [5] appears, read: 100 μM compound plus 10 μM ABA (FIG. 6B).
[6] abbreviates: 100 μM compound, in the presence of 10 μM ABA (FIG. 5).

Each structure is given as a SMILES string.

Here are results for eight compounds from patent publication US12063929B2, “3′-alkynyl abscisic acid derivatives as ABA antagonists” (University of Saskatchewan, priority 2018, dated 2024).

On to `CC1=C(C#Cc2ccc(O)cc2)C(=O)CC(C)(C)[C@@]1(O)/C=C/C(C)=C\C(=O)O` [Compound 1091, (2Z,4E)-5-((S)-1-hydroxy-3-((4-hydroxyphenyl)ethynyl)-2,6,6-trimethyl-4-oxocyclohex-2-en-1-yl)-3-methylpenta-2,4-dienoic acid], for which, in experiment [1], the “lentil seed germination, antagonism of ABA” value is on record as “effective antagonists”. Further, the lentil seed germination entry is given as “no effect” in experiment [1] (setting [4]) and “overcame the effect” in experiment [1] (setting [5]).

On to `CC1=C(C#C/C(C)=C\CO)C(=O)CC(C)(C)[C@@]1(O)/C=C/C(C)=C\C(=O)O` [Compound 1063, (2Z,4E)-5-((S)-1-hydroxy-3-((Z)-5-hydroxy-3-methylpent-3-en-1-yn-1-yl)-2,6,6-trimethyl-4-oxocyclohex-2-en-1-yl)-3-methylpenta-2,4-dienoic acid], for which, in experiment [1], the “antagonist activity, lentil germination” value is reported as “weak antagonist activity” and the “agonist activity, lentil germination” value is recorded as “no agonist activity”.

`CC1=C(/C=C/c2ccccc2)C(=O)CC(C)(C)[C@@]1(O)/C=C/C(C)=C\C(=O)O` [Compound 1090, (2Z,4E)-5-((S)-1-hydroxy-2,6,6-trimethyl-4-oxo-3-((E)-styryl)cyclohex-2-en-1-yl)-3-methylpenta-2,4-dienoic acid]: in experiment [1] (setting [6]), the lentil seed germination result is recorded as “promoted”.

Take `CC1=C(C#CC2CCCCC2)C(=O)CC(C)(C)[C@@]1(O)/C=C/C(C)=C\C(=O)O` [Compound 1100, (2Z,4E)-5-((S)-3-(cyclohexylethynyl)-1-hydroxy-2,6,6-trimethyl-4-oxocyclohex-2-en-1-yl)-3-methylpenta-2,4-dienoic acid]: in experiment [1], the “lentil seed germination, antagonism of ABA” value is reported as “effective antagonists”. For the same compound, the lentil seed germination result in experiment [1] (setting [4]) is given as “no effect”; in experiment [1] (setting [5]), “overcame the effect”.

For `CCc1ccc(C#CC2=C(C)[C@](O)(/C=C/C(C)=C\C(=O)O)C(C)(C)CC2=O)cc1` [Compound 1025, (2Z,4E)-5-((S)-3-((4-Ethylphenyl)ethynyl)-1-hydroxy-2,6,6-trimethyl-4-oxocyclohex-2-en-1-yl)-3-methylpenta-2,4-dienoic acid], the lentil seed germination result in experiment [1] (compound at 1 uM) was “most highly promoted”.

In the case of `CC1=C(c2ccccc2)C(=O)CC(C)(C)[C@@]1(O)/C=C/C(C)=C\C(=O)O` [Compound 1080, (2Z,4E)-5-((S)-3-hydroxy-2,4,4-trimethyl-6-oxo-3,4,5,6-tetrahydro-′[1,1′-biphenyl]-3-yl)-3-methylpenta-2,4-dienoic acid], the lentil seed germination entry in experiment [1] (setting [6]) is “weakly promoted”.

As for `CCC(O)(C#CC1=C(C)[C@](O)(/C=C/C(C)=C\C(=O)O)C(C)(C)CC1=O)CC` [Compound 1059, (2Z,4E)-5-((S)-3-(3-ethyl-3-hydroxypent-1-yn-1-yl)-1-hydroxy-2,6,6-trimethyl-4-oxocyclohex-2-en-1-yl)-3-methylpenta-2,4-dienoic acid], in experiment [1], the “antagonist activity, lentil germination” value is given as “weak antagonist activity” and the “agonist activity, lentil germination” value is given as “no agonist activity”.

Take `CC1=CC(=O)CC(C)(C)[C@@]1(O)/C=C/C(C)=C\C(=O)O` [ABA, (2Z,4E)-5-[(1S)-1-hydroxy-2,6,6-trimethyl-4-oxocyclohex-2-en-1-yl]-3-methylpenta-2,4-dienoic acid, reference compound]: the shoot growth result in experiment [2] is “inhibited”. In addition, the lentil seed germination result in experiment [1] (10 uM ABA alone, day one (FIG. 3A)) is given as “completely inhibited”. The canola seed germination result in experiment [3] is “inhibited seed germination”.
